According to PubChem BioAssay AID1418 (Emory University Molecular Libraries Screening Center, 2008):
The source made the active and inactive calls. How the calls were made is not given here.

The compounds below were run against Induced myeloid leukemia cell differentiation protein Mcl-1 (Homo sapiens) (UniProt Q07820) (assay: blockers of Bid binding to Mcl-1 – biochemical, TR-FRET, dose response (AID 1418)). Conditions: Mcl-1/Bid peptide binding, TR-FRET (europium/Dy647), 2 hr.
Induced myeloid leukemia cell differentiation protein Mcl-1 (Homo sapiens), sequence (Q07820 whole entry, looked up): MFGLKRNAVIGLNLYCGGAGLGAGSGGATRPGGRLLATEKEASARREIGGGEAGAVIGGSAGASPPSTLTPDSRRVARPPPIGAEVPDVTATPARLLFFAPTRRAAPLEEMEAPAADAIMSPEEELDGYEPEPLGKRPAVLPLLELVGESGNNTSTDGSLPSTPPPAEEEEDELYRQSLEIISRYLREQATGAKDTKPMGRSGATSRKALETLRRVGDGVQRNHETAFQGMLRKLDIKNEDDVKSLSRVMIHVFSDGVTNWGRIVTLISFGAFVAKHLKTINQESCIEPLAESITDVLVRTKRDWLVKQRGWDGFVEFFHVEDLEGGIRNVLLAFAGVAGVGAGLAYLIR
`N#Cc1c2nc3ccccc3nc2n2cc(NC(=O)c3ccc(F)cc3)ccc12` showed an IC50 of 0.71 µM.
With `O=C(Nc1ccc2c(c1)OCCO2)NC1(C(F)(F)F)Oc2ccccc2O1` the IC50 was > 54 µM (inactive).
With `O=C1C(=Cc2ccc(Br)o2)C(=O)c2ccccc21` the IC50 was 3.15 µM.
For `CCc1cccc(CC)c1NC(=S)N1CCn2cccc2C1c1cccnc1` (stereo unspecified), the IC50 was > 54 µM (inactive).
For `FC(F)(F)c1cccc(N/N=C/c2ccccc2)c1`, the IC50 was > 54 µM (inactive).
`COC(=O)c1ccccc1NC(=O)COC(=O)/C=C/c1ccco1` was tested, and the IC50 was > 54 µM (inactive).
For `Cc1cccc(N2CCN(C(=O)Cc3ccc(-n4c(=O)[nH]c5ccsc5c4=O)cc3)CC2C)c1` (stereo unspecified), the IC50 was > 54 µM (inactive).
Compound `CCOc1ccc2nc(NC(=O)c3cccc(-c4cc5ccccc5oc4=O)c3)sc2c1` has an IC50 of 1.94 µM.
In the case of `O=[N+]([O-])c1cc(Br)c(O)c(/C=N/Nc2nnnn2-c2cccc3ccccc23)c1`, the IC50 is reported as 13.9 µM.
Compound `O=C1C(=Cc2cccn2-c2ccc(O)cc2)C(=O)c2ccccc21` has an IC50 of 2.53 µM.
`O=C(CNC(=O)c1ccc([N+](=O)[O-])cc1)N/N=C\c1ccc(OC(=O)c2ccccc2)cc1` was tested, and the IC50 was 11 µM.
With `O=C(NC1CCCC1)c1csc2c1CCCC2` the IC50 was > 54 µM (inactive).
`Cc1nc(COC(=O)c2cc(O)c3ccccc3c2O)cs1` showed an IC50 of 0.9 µM.
`COc1cc(/C=C2\SC(=O)N(c3cccc(Cl)c3)C2=O)cc([N+](=O)[O-])c1O` showed an IC50 of 6.38 µM.
`O=[N+]([O-])c1ccc(-c2cn(-c3ccc(Cl)cc3)c(=S)[nH]2)cc1` was tested, and the IC50 was > 54 µM (inactive).
`CCOC(=O)N1CCN(c2nc(C)c3c(n2)CCCC3=O)CC1` was tested, and the IC50 was > 54 µM (inactive).
For `COc1ccccc1CNC(=O)CC(NS(=O)(=O)c1ccc(C)cc1)c1ccco1` (stereo unspecified), the IC50 was > 54 µM (inactive).
For `Cc1cccc2c3nc4ccccc4nc3n(CCCN3C(=O)c4ccccc4C3=O)c12`, the IC50 was > 54 µM (inactive).
In the case of `CCC(=NC(C)c1ccccc1)c1c(O)[nH]c(=O)[nH]c1=O` (stereo unspecified), the IC50 is reported as 0.45 µM.
Compound `Cc1ccc(-n2cccc2/C=C2/C(=N)N3C(=NC2=O)SN=C3S(C)(=O)=O)cc1Cl` has an IC50 of 10.9 µM.
`CCCN(CCC)CCNC(=O)C1CC(=O)N(c2ccc(OC)cc2)C1c1ccc(OC)cc1` (stereo unspecified) was tested, and the IC50 was > 54 µM (inactive).
For `O=C(NN1C(=O)C2C(C1=O)C1C=CC2C12CC2)c1ccc(Cl)cc1` (stereo unspecified), the IC50 was > 54 µM (inactive).
`CC1C(=O)CCN(C(C)C)C1C` (stereo unspecified) was tested, and the IC50 was > 54 µM (inactive).
`Cc1ccc(C(C)C)cc1NC(=O)Nc1ccc([N+](=O)[O-])cc1` was tested, and the IC50 was > 54 µM (inactive).
For `Cc1cc(C)nc(N(C#N)S(=O)(=O)c2ccccc2Cl)n1`, the IC50 was > 54 µM (inactive).
For `CCOc1cc(N2CCOCC2)c(OCC)cc1NC(=O)CN1CCc2ccccc2C1`, the IC50 was > 54 µM (inactive).
For `C#CCOCCOCCOCCNc1nc(N2CCN(C(=O)[C@H](Cc3ccc(O)cc3)n3cc([C@@H](N)C(C)CC)nn3)CC2)nc(N2CCN(C(=O)[C@H](Cc3cc4ccccc4[nH]3)n3cc([C@@H](N)C(C)CC)nn3)CC2)n1` (stereo partly specified), the IC50 was 0.82 µM.
`CCOc1ccc(-c2csc3ncn(-c4ccc(OC)cc4)c(=O)c23)cc1` was tested, and the IC50 was > 54 µM (inactive).
In the case of `Cc1ccc(Cn2nc(C)c(NC(=O)CSc3nc4c(c(C(F)(F)F)n3)CCc3ccccc3-4)c2C)cc1`, the IC50 is reported as 1.91 µM.
With `C#CCOCCOCCOCCNc1nc(N2CCN(C(=O)[C@H](Cc3cc4ccccc4[nH]3)n3cc([C@@H](N)CC(C)C)nn3)CC2)nc(N2CCN(C(=O)[C@H](Cc3cc4ccccc4[nH]3)n3cc([C@@H](N)CC(C)C)nn3)CC2)n1` the IC50 was 24.2 µM.
In the case of `O=C(N=Nc1c(O)[nH]c2ccc([N+](=O)[O-])cc12)c1cc(-c2ccccc2Cl)nc2ccccc12`, the IC50 is reported as 0.81 µM.
In the case of `C#CCOCCOCCOCCNc1nc(N2CCN(C(=O)[C@H](CCCCN)n3cc(C(N)CC(C)C)nn3)CC2)nc(N2CCN(C(=O)[C@H](CCC(=O)O)n3cc(C(N)[C@H](C)CC)nn3)CC2)n1` (stereo partly specified), the IC50 is reported as 22.2 µM.
`Cc1ccc(S(=O)(=O)CCC(=O)OCC(=O)Nc2ncc(Cl)cc2Cl)cc1` was tested, and the IC50 was > 54 µM (inactive).
In the case of `CC(=O)c1ccc(NC(=S)NNC(=O)c2ccncc2)cc1`, the IC50 is reported as > 54 µM (inactive).
`Cc1ccc(NC(=S)N2CCN(c3ncccn3)CC2)cc1C` was tested, and the IC50 was > 54 µM (inactive).
`N#Cc1ccccc1Cn1c(-c2cscn2)nc2ccccc21` was tested, and the IC50 was > 54 µM (inactive).
With `CSc1nc(C)cc(OCC(=O)n2nc(C)cc2C)n1` the IC50 was > 54 µM (inactive).
`O=C(O)c1cccc(N/N=C/C2=C(Cl)c3cc(Cl)ccc3SC2)c1` showed an IC50 of 8.44 µM.
In the case of `C#CCOCCOCCOCCNc1nc(N2CCN(C(=O)C(Cc3ccc(O)cc3)n3cc(C(N)CC(C)C)nn3)CC2)nc(N2CCN(C(=O)C(Cc3cc4ccccc4[nH]3)n3cc(C(N)Cc4ccc(O)cc4)nn3)CC2)n1` (stereo unspecified), the IC50 is reported as > 54 µM (inactive).
`CCOc1ccc(/C=C/C(=O)Nc2ccc(N3CCOCC3)cc2)cc1` was tested, and the IC50 was > 54 µM (inactive).
In the case of `CCOc1ccc(-n2c(-c3ccoc3)nc3ccccc3c2=O)cc1`, the IC50 is reported as > 54 µM (inactive).
With `CC(/C=C1\SC(=S)N(NS(=O)(=O)c2ccc(C)cc2)C1=O)=C\c1ccccc1` the IC50 was 25 µM.
With `CN(C)S(=O)(=O)c1cccc(N=c2scc(-c3ccc4c(c3)NC(=O)CO4)n2CC2CCCO2)c1` (stereo unspecified) the IC50 was > 54 µM (inactive).
Work on `O=C(O)CCN1C(=O)/C(=C\c2ccc(-c3nc4ccccc4s3)o2)SC1=S` yielded an IC50 of 0.57 µM.
For `COc1ccccc1CN1CCN(C(=O)Cc2ccccc2)CC1`, the IC50 was > 54 µM (inactive).
For `COc1ccc(C2SCC(=O)N2CCCN(C)C)cc1` (stereo unspecified), the IC50 was > 54 µM (inactive).
For `CSc1nc(SCC(=O)O)c2sc3nc(-c4ccccc4)c4c(c3c2n1)CCC4`, the IC50 was 1.53 µM.
`O=[N+]([O-])c1ccc2c(c1)ncn2-c1ccccc1` was tested, and the IC50 was > 54 µM (inactive).
For `CN1/C(=C\C=C2C(=O)NC(=S)NC2=O)C(C)(C)c2ccccc21`, the IC50 was > 54 µM (inactive).
`CC(C)(C)c1nc2ccccc2c2nnc(SCC(=O)Nc3nc4ccccc4s3)n12` was tested, and the IC50 was 2.03 µM.
Compound `COc1ccc(/C=C2\C(=O)NC(=S)N2C(=O)c2ccc(F)cc2)cc1` has an IC50 of 8.97 µM.
With `Cc1nc(NC(=O)c2ccco2)sc1-c1csc(Nc2ccc(Cl)cc2Cl)n1` the IC50 was 0.77 µM.
For `CC(=O)Oc1ccc(C(c2ccc(OC(C)=O)cc2)c2ccccn2)cc1`, the IC50 was > 54 µM (inactive).
For `CCOC(=O)c1ccc(NC(=O)Oc2ccccc2)cc1`, the IC50 was > 54 µM (inactive).
With `O=C(O)c1cnn2c(C(F)(F)F)cc(-c3ccco3)nc12` the IC50 was > 54 µM (inactive).
In the case of `Cc1ccc(S(=O)(=O)N/N=C/c2cnn(C)c2C)cc1`, the IC50 is reported as > 54 µM (inactive).
For `Cc1ccc2c(c1)C1C=CCC1C(C(=O)O)N2` (stereo unspecified), the IC50 was 2.2 µM.
`COc1ccc(NC(=S)NNc2ccc(S(=O)(=O)Nc3ccccc3C(=O)O)cc2[N+](=O)[O-])cc1` gave an IC50 of 22.3 µM.
`Oc1c(Cl)cc(Cl)cc1Sc1cc(Cl)cc(Cl)c1O` was tested, and the IC50 was 1.67 µM.
In the case of `CCC(CC)C(=O)Oc1c(Sc2ccccc2[N+](=O)[O-])c(C)nn1C(C)(C)C`, the IC50 is reported as > 54 µM (inactive).
For `CCNc1ccc2noc3c2c1C(=O)c1ccccc1-3`, the IC50 was 14.7 µM.
For `COc1ccccc1NC(=O)C(=O)N/N=C/c1ccc([N+](=O)[O-])s1`, the IC50 was > 54 µM (inactive).
In the case of `COc1ccc2[nH]c(=O)c(CN(C(=O)C3CCCO3)c3ccc(C)c(C)c3)cc2c1` (stereo unspecified), the IC50 is reported as > 54 µM (inactive).
`Cc1cccc(C)c1NC(=O)C1c2ccccc2Oc2ccccc21` was tested, and the IC50 was > 54 µM (inactive).
`CC(Sc1nnc2c(n1)C1CCC2(C)C1(C)C)C(=O)Nc1ccccc1` (stereo unspecified) was tested, and the IC50 was > 54 µM (inactive).
`NNc1nc(-c2ccccc2)cs1` gave an IC50 of 0.58 µM.
In the case of `COc1ccc2[nH]c3c(=O)n(Cc4ccco4)cnc3c2c1`, the IC50 is reported as > 54 µM (inactive).
With `COC(=O)/C=C1/SC(=Nc2ccc(C)cc2C)NC1=O` the IC50 was > 54 µM (inactive).
With `CCOc1c(C(N)=O)c(-c2ccccc2)c2c(=O)[nH]c3ccccc3n12` the IC50 was > 54 µM (inactive).
With `CN1C(=O)/C(=C2\SC(=S)N(CCCCCC(=O)O)C2=O)c2ccccc21` the IC50 was 29.4 µM.
With `O=C(O)[C@@H](c1ccccc1)N1Cc2ccccc2C1=O` the IC50 was 0.54 µM.
With `Cc1cc(=O)oc2cc(OCC(=O)N/N=C/c3cc([N+](=O)[O-])ccc3O)ccc12` the IC50 was 5.58 µM.
`CN(Cc1ccccc1)Cc1nc2c([nH]1)c(=O)[nH]c(=O)n2C` was tested, and the IC50 was > 54 µM (inactive).
In the case of `c1ccc2c(c1)nnn2-c1ncnc2sc3c(c12)CCCC3`, the IC50 is reported as > 54 µM (inactive).
Work on `Cc1sc(NC(=O)c2cc(-c3ccc(Cl)cc3)nc3ccccc23)c(C(N)=O)c1C` yielded an IC50 of 0.92 µM.
With `O=C(CCS(=O)(=O)c1ccccc1)Nc1ccccc1-c1nc2ccccc2s1` the IC50 was > 54 µM (inactive).
For `CCOc1cccc(CNCCO)c1OCc1ccc(Cl)cc1Cl`, the IC50 was > 54 µM (inactive).
With `O=C(Cc1sc(-c2ccccc2Cl)nc1-c1ccccc1)Nc1ccccc1` the IC50 was > 54 µM (inactive).
`Cc1ccc(-c2nn(CC(=O)NCc3cc(-c4nn(C)c(=O)c5ccccc45)ccc3C)c(=O)c3ccccc23)cc1` gave an IC50 of 0.85 µM.
For `CCn1c(-c2cccc(Br)c2)n[nH]c1=S`, the IC50 was > 54 µM (inactive).
In the case of `COc1cccc(CNC(=O)CSCc2cnn(-c3ccccc3)c2-n2cccc2)c1OC`, the IC50 is reported as > 54 µM (inactive).
In the case of `COc1ccc(CCNc2nc(-c3sc(C)nc3C)cs2)cc1OC`, the IC50 is reported as “inactive”.
In the case of `COc1cc(/C=C2\SC(=O)N(c3ccc(Cl)cc3)C2=O)cc([N+](=O)[O-])c1O`, the IC50 is reported as 1.58 µM.
In the case of `COC(=O)c1ccc(Oc2coc3cc(OCc4ccc([N+](=O)[O-])cc4)ccc3c2=O)cc1`, the IC50 is reported as > 54 µM (inactive).
`CSC(=NCc1cccnc1)NS(=O)(=O)c1cccs1` was tested, and the IC50 was > 54 µM (inactive).
Work on `COc1ccc2nc(NC(=O)c3cccc(-c4cc5ccccc5oc4=O)c3)sc2c1` yielded an IC50 of 0.89 µM.
For `CCOc1ccc(N/C(=C(/C(Cl)=C(Cl)Cl)[N+](=O)[O-])n2cncn2)cc1`, the IC50 was > 54 µM (inactive).
For `O=C1NC(CCc2ccccc2)C(=O)N1Cc1ccccc1Cl` (stereo unspecified), the IC50 was > 54 µM (inactive).
Work on `C=CCn1cc(/C=N/NC(=O)COc2cccc3cccnc23)c2ccccc21` yielded an IC50 of 3.38 µM.
For `COc1ccc(NC(C)C(=O)Nc2ccc(C#N)cc2)cc1Cl` (stereo unspecified), the IC50 was > 54 µM (inactive).
For `Cc1cccc(NC(=O)c2cc(N3C(=O)CCC3=O)ccc2Cl)n1`, the IC50 was > 54 µM (inactive).
For `Cc1ccc(C)c(OCC(=O)Nc2ccc3c(c2)OCO3)c1C`, the IC50 was > 54 µM (inactive).
Compound `O=C(O)c1cc(-c2ccc(/C=C3/SC(=S)N(Cc4ccccc4)C3=O)o2)ccc1Cl` has an IC50 of 1.7 µM.
In the case of `c1ccc2nc3ccccc3nc2c1`, the IC50 is reported as > 54 µM (inactive).
With `O=C(NCC1CCCO1)c1cc([N+](=O)[O-])ccc1Cl` (stereo unspecified) the IC50 was > 54 µM (inactive).
`O=C(O)COc1ccccc1C(Nc1cccnc1)c1cc(Cl)c2cccnc2c1O` (stereo unspecified) was tested, and the IC50 was 2.52 µM.
